This is an account of results in article PMC10031046, “Competition between FLS and DFR regulates the distribution of flavonols and proanthocyanidins in Rubus chingii Hu” (Frontiers in Plant Science, 2023).

The first test concerns T1, RcDFR.
T1 construct: gene DFR; N-terminal MBP fusion (pMAL-c2X), E. coli BL21(DE3), amylose resin
As to the kind of experiment: anthocyanidin formation after butanol-HCl, A530, Michaelis-Menten fit. The test is classed as biochemical, Rubus chingii. Particulars: 1 mM NADPH, 0.1 M PBS pH 7.0, 30 °C, 1 h; kcat unit is 10^-3 s^-1. From the text:
anthocyanidin formation after butanol-HCl, A530, Michaelis-Menten fit on RcDFR
Turning to `O=C1c2c(O)cc(O)cc2O[C@H](c2ccc(O)cc2)[C@H]1O` [DHK, Dihydrokaempferol], the Km is 47.2 ± 5.79 µM.
On the same count and under the same terms, the value for `O=C1c2c(O)cc(O)cc2O[C@H](c2ccc(O)c(O)c2)[C@H]1O` [DHQ, Dihydroquercetin] was 125 ± 11.4 µM.

Another test deals with T2, RcFLS1.
T2 construct: gene FLS1; N-terminal MBP fusion (pMAL-c2X), E. coli BL21(DE3), amylose resin
In words: HPLC product assay, Michaelis-Menten fit. The class given is biochemical, Rubus chingii. The following applies: 100 mM Tris-HCl pH 7.5, 10 mM ascorbate, 10 μM FeSO4, 10 mM 2-oxoglutarate, catalase, 30 °C; kcat unit is 10^-3 s^-1. An excerpt:
HPLC product assay, Michaelis-Menten fit on RcFLS1
For the molecule `O=C1C[C@@H](c2ccc(O)c(O)c2)Oc2cc(O)cc(O)c21` [E, Eriodictyol], the Km came to 34.5 ± 9.34 µM.
Still for that read-out and setting: to `O=C1c2c(O)cc(O)cc2O[C@H](c2ccc(O)cc2)[C@H]1O` [DHK, Dihydrokaempferol] belongs 33.9 ± 8.66 µM; to `O=C1c2c(O)cc(O)cc2O[C@H](c2ccc(O)c(O)c2)[C@H]1O` [DHQ, Dihydroquercetin], 56.9 ± 16.4 µM.
Regarding `O=C1C[C@@H](c2ccc(O)cc2)Oc2cc(O)cc(O)c21` [N, Naringenin], the Michaelis-Menten constant (Km) worked out at 43.6 ± 14.6 µM.

Broadly, the Km is the concentration of substrate that gives half-maximal velocity.
